Experimental data published in patent US11019821B2, “Fused bicyclic heterocycle derivatives as pesticides” (Bayer Aktiengesellschaft, priority 2018, dated 2021).

Legend:
[1] = log P by HPLC on reversed-phase column, acidic range; type: physicochemical; conditions: reversed-phase HPLC column (C 18); pH 2.7, 0.1% aqueous formic acid and acetonitrile, C 18 column, 55° C.; read-out: log P (HCOOH)
Procedure: The log P values are measured according to EEC Directive 79/831 Annex V.A8 by HPLC (high-performance lilog Puid chromatography) on a reversed-phase column (C 18). Temperature: 55° C.
The LC-MS determination in the acidic range is effected at pH 2.7 with 0.1% alog Pueous formic acid and acetonitrile (containing 0.1% formic acid) as eluents; linear gradient from 10% acetonitrile to 95% acetonitrile. Called log P (HCOOH) in the table.
Calibration is effected using unbranched alkan-2-ones (having 3 to 16 carbon atoms) with known log P values (log P values determined on the basis of the retention times by linear interpolation between two successive alkanones).

Phaedon cochleariae = Phaedon cochleariae spray test; type: in vivo; conditions: application rate 100 g/ha, after 7 days, Chinese cabbage leaf discs
Procedure: (§1) To produce a suitable active ingredient formulation, 1 part by weight of active ingredient is dissolved with the specified parts by weight of solvent and made up to the desired concentration with water containing an emulsifier concentration of 1000 ppm. To produce further test concentrations, the formulation is diluted with emulsifier-containing water.
Discs of Chinese cabbage leaves (Brassica pekinensis) are sprayed with an active ingredient formulation of the desired concentration and, after drying, populated with larvae of the mustard beetle (Phaedon cochleariae).
After 7 days, the efficacy in % is determined. 100% means that all the beetle larvae have been killed; 0% means that no beetle larvae have been killed.

Myzus persicae [2] = test: Myzus persicae oral test; type: in vivo; conditions: 120 h, application rate 4 ppm, after 5 days, read-out: efficacy (aphids killed)
Procedure: To produce a suitable active ingredient formulation, 1 part by weight of active ingredient is dissolved with the stated parts by weight of solvent and made up to the desired concentration with water.
50 μl of the active ingredient preparation are transferred into microtitre plates and made up to a final volume of 200 μl with 150 μl of IPL41 insect medium (33%+15% sugar). Subselog Puently, the plates are sealed with parafilm, which a mixed population of green peach aphids (Myzus persicae) within a second microtitre plate is able to puncture and imbibe the solution.
(§2) After 5 days, the efficacy in % is determined. 100% means that all the aphids have been killed; 0% means that no aphids have been killed.

Spodoptera frugiperda = Spodoptera frugiperda spray test; type: in vivo; conditions: application rate 100 g/ha, after 7 days, maize leaf discs
Procedure: as §1
Leaf discs of maize (Zea mays) are sprayed with an active ingredient formulation of the desired concentration and, after drying, populated with caterpillars of the armyworm (Spodoptera frugiperda).
After 7 days, the efficacy in % is determined. 100% means that all the caterpillars have been killed; 0% means that no caterpillar has been killed.

Myzus persicae [3] = test: Myzus persicae spray test; type: in vivo; conditions: foliar, 120 h, application rate 100 g/ha, after 5 days, Chinese cabbage leaf discs, read-out: efficacy (aphids killed)
Procedure: as §1
Discs of Chinese cabbage leaves (Brassica pekinensis) infested by all stages of the green peach aphid (Myzus persicae) are sprayed with an active ingredient formulation of the desired concentration.
as §2

Tetranychus urticae = Tetranychus urticae spray test, OP-resistant; type: in vivo; conditions: application rate 100 g/ha, after 6 days, bean leaf discs
Procedure: as §1
Discs of bean leaves (Phaseolus vulgaris) infested with all stages of the greenhouse red spider mite (Tetranychus urticae) are sprayed with an active ingredient formulation of the desired concentration.
After 6 days, the efficacy in % is determined. 100% means that all the spider mites have been killed; 0% means that no spider mites have been killed.

Ctenocephalides felis = Ctenocephalides felis oral test; type: in vivo; conditions: application rate 100 ppm in citrated cattle blood, after 2 days, adult cat fleas
Procedure: (§3) Solvent: dimethyl sulfoxide
To produce a suitable active ingredient formulation, 10 mg of active ingredient are mixed with 0.5 ml of dimethyl sulfoxide. Dilution with citrated cattle blood gives the desired concentration.
About 20 unfed adult cat fleas (Ctenocephalides felis) are placed into a chamber which is closed at the top and bottom with gauze. A metal cylinder whose bottom end is closed with parafilm is placed onto the chamber. The cylinder contains the blood/active ingredient formulation, which can be imbibed by the fleas through the parafilm membrane.
After 2 days, the kill in % is determined. 100% means that all of the fleas have been killed; 0% means that none of the fleas have been killed.

Boophilus microplus = Boophilus microplus injection test; type: in vivo; conditions: application rate 20 μg/animal, assessed after 7 days, engorged adult female cattle ticks
Procedure: as §3
To produce a suitable active ingredient formulation, 10 mg of active ingredient are mixed with 0.5 ml of solvent and the concentrate is diluted to the desired concentration with solvent.
1 μl of the active ingredient solution is injected into the abdomen of 5 engorged adult female cattle ticks (Boophilus microplus). The animals are transferred into dishes and kept in a climate-controlled room.
Efficacy is assessed after 7 days by laying of fertile eggs. Eggs which are not visibly fertile are stored in a climate-controlled cabinet until the larvae hatch after about 42 days. An efficacy of 100% means that none of the ticks has laid any fertile eggs; 0% means that all the eggs are fertile.

Diabrotica balteata = Diabrotica balteata spray test; type: in vivo; conditions: application rate 160 μg/cavity, after 7 days, beetle larvae on germinated wheat grains
Procedure: To produce an appropriate active ingredient formulation, 1 part by weight of active ingredient is dissolved with the given parts by weight of solvent and made up with water containing an emulsifier concentration of 1000 ppm until the desired concentration is attained. Further test concentrations are produced by diluting with emulsifier-containing water.
Pre-swollen wheat grains (Triticum aestivum) are incubated in a multiwell plate filled with agar and a little water for one day (5 seed grains per cavity). The germinated wheat grains are sprayed with an active ingredient formulation of the desired concentration. Subselog Puently, each cavity is infected with 10-20 Diabrotica balteata beetle larvae.
After 7 days, efficacy in % is determined. 100% means that all wheat plants have grown as in the untreated, uninfected control; 0% means that no wheat plant has grown.

Structure (SMILES)	pest or weed control at 4 ppm (Myzus persicae [2]) [%]	efficacy (caterpillars killed) (Spodoptera frugiperda) [%]	pest or weed control at 100 g/ha (Myzus persicae [3]) [%]	other results
Cn1c(-c2nn3c(c2Br)CC(C(F)(F)F)CC3)nc2cc(C(F)(F)F)cnc21 (centres unmarked) [2-[3-Bromo-5-(trifluoromethyl)-4,5,6,7-tetrahydropyrazolo[1,5-a]pyridin-2-yl]-3-methyl-6-(trifluoromethyl)imidazo[4,5-b]pyridine]				chromatographic logP [1]: 3.99
O=C(O)c1nn2c(c1Br)CC(C(F)(F)F)CC2 (centres unmarked) [3-Bromo-5-(trifluoromethyl)-4,5,6,7-tetrahydropyrazolo[1,5-a]pyridine-2-carboxylic acid]				chromatographic logP [1]: 1.75
O=C(O)c1cc2n(n1)CCC(C(F)(F)F)C2 (centres unmarked) [5-(Trifluoromethyl)-4,5,6,7-tetrahydropyrazolo[1,5-a]pyridine-2-carboxylic add]				chromatographic logP [1]: 1.28
O=C(O)c1cc2cc(C(F)(F)F)ccn2n1 [5-(Trifluoromethyl)pyrazolo[1,5-a]pyridine-2-carboxylic add]				chromatographic logP [1]: 1.58
COC(=O)c1nn2ccc(C(F)(F)F)cc2c1C(=O)OC [Dimethyl 5-(trifluoromethyl)pyrazolo[1,5-a]pyridine-2,3-dicarboxylate]				chromatographic logP [1]: 2.57
CCS(=O)(=O)c1c(-c2nc3cc(C(F)(F)F)cnc3n2C)nn2c1CC(C(F)(F)F)CC2 (centres unmarked) [Example I-01, 2-[3-Ethylsulfonyl-5-(trifluoromethyl)-4,5,6,7-tetrahydropyrazolo[1,5-a]pyridin-2-yl]-3-methyl-6-(trifluoromethyl)imidazo[4,5-b]pyridine]	100	100		efficacy (beetle larvae killed) (Phaedon cochleariae): 100%; chromatographic logP [1]: 3.21
CCS(=O)(=O)c1c(-c2nc3cc(C(F)(F)F)cnc3n2C)nn2c1CCCC2 [Example I-03]	100		90	efficacy (beetle larvae killed) (Phaedon cochleariae): 100%
CCS(=O)(=O)c1c(-c2nc3cc(C(F)(F)F)ncc3n2C)nn2c1CC(C(F)(F)F)CC2 (centres unmarked) [Example I-04]	100		100	efficacy (spider mites killed) (Tetranychus urticae): 100%
CCS(=O)(=O)c1c(-c2nc3cc(C(F)(F)F)ncc3n2C)nn2c1CCC(C)C2 (centres unmarked) [Example I-06]			90	
CCS(=O)(=O)c1c(-c2nc3cc(C(F)(F)F)cnc3n2C)nn2c1CCC(C)C2 (centres unmarked) [Example I-07]	100			
CCS(=O)(=O)c1c(-c2nc3cc(C(F)(F)C(F)(F)F)cnc3n2C)nn2c1CCC(C)C2 (centres unmarked) [Example I-08]	100	100		
CCS(=O)(=O)c1c(-c2nc3cc(OC(F)(F)F)cnc3n2C)nn2c1CCC(C)C2 (centres unmarked) [Example I-09]	90		90	
CCS(=O)(=O)c1c(-c2nc3cc(C(F)(F)F)cnc3n2C)nn2c1CC(C)CC2 (centres unmarked) [Example I-10]	100		90	efficacy (spider mites killed) (Tetranychus urticae): 90%
CCS(=O)(=O)c1c(-c2nc3cc(SC(F)(F)F)cnc3n2C)nn2c1CCC(C)C2 (centres unmarked) [Example I-11]	100	83	90	efficacy (kill in %) (Ctenocephalides felis): 100%
CCS(=O)(=O)c1c(-c2nc3cc(C(F)(F)C(F)(F)F)ncc3n2C)nn2c1CCCC2 [Example I-12]	100		90	efficacy (beetle larvae killed) (Phaedon cochleariae): 100%
CCS(=O)(=O)c1c(-c2nc3cc(C(F)(F)C(F)(F)F)ncc3n2C)nn2c1CC(C)CC2 (centres unmarked) [Example I-13]	100	100	90	efficacy (spider mites killed) (Tetranychus urticae): 100%; efficacy (no laying of fertile eggs) (Boophilus microplus): 100%; efficacy (kill in %) (Ctenocephalides felis): 100%
CCS(=O)(=O)c1c(-c2nc3cc([S+]([O-])C(F)(F)F)cnc3n2C)nn2c1CCC(C)C2 (centres unmarked) [Example I-14]	100		100	
CCS(=O)(=O)c1c(-c2nc3cc(S(=O)(=O)C(F)(F)F)cnc3n2C)nn2c1CCC(C)C2 (centres unmarked) [Example I-15]	90	100	90	efficacy (kill in %) (Ctenocephalides felis): 90%
CCS(=O)(=O)c1c(-c2nc3cc(S(=O)(=O)C(F)(F)F)ccc3o2)nn2c1CCC(C)C2 (centres unmarked) [Example I-16]	90			
CCS(=O)(=O)c1c(-c2nc3cc(C(F)(F)C(F)(F)F)ncc3n2C)nn2c1CCC(C(F)(F)F)C2 (centres unmarked) [Example I-17]	100	100		efficacy (wheat plants grown as in untreated, uninfected control) (Diabrotica balteata): 100%
CCS(=O)(=O)c1c(-c2nc3c(n2C)CN(C)C(C(F)(F)F)=C3)nn2c1CCC(C(F)(F)F)C2 (centres unmarked) [Example I-18]	100		90	efficacy (wheat plants grown as in untreated, uninfected control) (Diabrotica balteata): 100%
CCS(=O)(=O)c1c(-c2nc3cc(C(F)(F)C(F)(F)F)cnc3n2C)nn2c1CCC(C(F)(F)F)C2 (centres unmarked) [Example I-19]	100	100		efficacy (wheat plants grown as in untreated, uninfected control) (Diabrotica balteata): 100%
